We go through 12 compounds from PubChem BioAssay AID194 (DTP/NCI, 2004).

The subject of this test is BDF1 mice, B16 melanoma s.c., survival/tumor T/C. The test is described as follows: NCI In Vivo Anticancer Drug Screen. Data for tumor model B16 Melanoma (subcutaneous) in B6D2F1 (BDF1) mice. How it is done:
The antitumor activity of compounds was measured in mice bearing transplantable tumors. Survival or tumor size were measured and the results are expressed as the measurement made in the treated group (T) divided by the measurement made in the vehicle treated control group (C). The tumor model used in this assay is B16 Melanoma (subcutaneous) in B6D2F1 (BDF1) mice

Each structure is given as a SMILES string. Where “and” joins values, the source holds several entries; their conditions need not be identical. Equal entries are not always repeated. Records with an inconclusive call do not appear.

For the compound `CC1OC(=O)C(C(C)C)NC(=O)C(C(C)C)OC(=O)C(C(C)C)NC(=O)C(C)OC(=O)C(C(C)C)NC(=O)C(C(C)C)OC(=O)C(C(C)C)NC(=O)C(C)OC(=O)C(C(C)C)NC(=O)C(C(C)C)OC(=O)C(C(C)C)NC1=O` (centres undefined), the T/C was 86 % of control (endpoint: median survival time, dose: 3.4 mg/kg/injection, schedule: Q01DX009 (ip), vehicle: saline with Tween-80, higher = longer survival); 86 % of control (endpoint: median survival time, dose: 5.0 mg/kg/injection, schedule: Q01DX009 (ip), vehicle: saline with Tween-80, higher = longer survival); 91 % of control (endpoint: median survival time, dose: 7.5 mg/kg/injection, schedule: Q01DX009 (ip), vehicle: saline with Tween-80, higher = longer survival); 86 % of control (endpoint: median survival time, dose: 15.0 mg/kg/injection, schedule: Q04DX003 (ip), vehicle: saline with Tween-80, higher = longer survival); 90 % of control (endpoint: median survival time, dose: 20.0 mg/kg/injection, schedule: Q04DX003 (ip), vehicle: saline with Tween-80, higher = longer survival); 86 % of control (endpoint: median survival time, dose: 30.0 mg/kg/injection, schedule: Q01DX001 (ip), vehicle: saline with Tween-80, higher = longer survival). The T/C is 91 % of control (endpoint: median survival time, dose: 30.0 mg/kg/injection, schedule: Q04DX003 (ip), vehicle: saline with Tween-80, higher = longer survival) and 97 % of control (endpoint: median survival time, dose: 45.0 mg/kg/injection, schedule: Q01DX001 (ip), vehicle: saline with Tween-80, higher = longer survival).

Regarding `CN1c2c(nc(N)[nH]c2=O)NCC1CCNc1ccc(C(=O)NC(CCC(=O)O)C(=O)O)cc1` (centres undefined), the T/C is, setting by setting: (endpoint: median survival time, dose: 600.0 mg/kg/injection, schedule: Q04DX003 (ip), vehicle: saline, higher = longer survival) 118 % of control and 123 % of control; (endpoint: median survival time, dose: 800.0 mg/kg/injection, schedule: Q01DX001 (ip), vehicle: saline, higher = longer survival) 108 % of control; (endpoint: median survival time, dose: 800.0 mg/kg/injection, schedule: Q04DX003 (ip), vehicle: saline, higher = longer survival) 113 % of control; (endpoint: median survival time, dose: 900.0 mg/kg/injection, schedule: Q04DX003 (ip), vehicle: saline, higher = longer survival) 159 % of control; (endpoint: median survival time, dose: 1200.0 mg/kg/injection, schedule: Q01DX001 (ip), vehicle: saline, higher = longer survival) 119 % of control and 121 % of control; (endpoint: median survival time, dose: 1800.0 mg/kg/injection, schedule: Q01DX001 (ip), vehicle: saline, higher = longer survival) 121 % of control. Moreover, under “endpoint: median survival time, dose: 2400.0 mg/kg/injection, schedule: Q01DX001 (ip), vehicle: saline, higher = longer survival”, the T/C was 121 % of control.

Take `COC1C(C)OC(OC2CC(C)(O)Cc3cc4c(c(O)c32)C(=O)c2c(O)cc3c(c2C4=O)OC2OC3(C)C(O)C(N(C)C)C2O)C(OC)C1(C)OC` (centres undefined): the T/C reads like this: (endpoint: median survival time, dose: 2.5 mg/kg/injection, schedule: Q01DX009 (ip), vehicle: other, higher = longer survival) 90 % of control; (endpoint: median survival time, dose: 625.0 micrograms/kg/injection, schedule: Q01DX009 (ip), vehicle: other, higher = longer survival) 113 % of control; (endpoint: median survival time, dose: 1250.0 micrograms/kg/injection, schedule: Q01DX009 (ip), vehicle: other, higher = longer survival) 95 % of control; (endpoint: median survival time, dose: 2500.0 micrograms/kg/injection, schedule: Q01DX009 (ip), vehicle: other, higher = longer survival) 122 % of control; (endpoint: median survival time, dose: 5000.0 micrograms/kg/injection, schedule: Q01DX009 (ip), vehicle: other, higher = longer survival) 113 % of control.

For the compound `CN(Cc1cnc2nc(N)nc(N)c2n1)c1c(Cl)cc(C(=O)NC(CCC(=O)O)C(=O)O)cc1Cl` (centres undefined), the T/C runs as follows: (endpoint: median survival time, dose: 60.0 mg/kg/injection, schedule: Q01DX009 (ip), vehicle: sodium bicarbonate, higher = longer survival) 103 % of control; (endpoint: median survival time, dose: 90.0 mg/kg/injection, schedule: Q01DX009 (ip), vehicle: sodium bicarbonate, higher = longer survival) 110 % of control; (endpoint: median survival time, dose: 135.0 mg/kg/injection, schedule: Q01DX009 (ip), vehicle: sodium bicarbonate, higher = longer survival) 101 % of control; (endpoint: median survival time, dose: 600.0 mg/kg/injection, schedule: Q04DX003 (ip), vehicle: sodium bicarbonate, higher = longer survival) 109 % of control; (endpoint: median survival time, dose: 670.0 mg/kg/injection, schedule: Q01DX001 (ip), vehicle: sodium bicarbonate, higher = longer survival) 97 % of control; (endpoint: median survival time, dose: 900.0 mg/kg/injection, schedule: Q04DX003 (ip), vehicle: sodium bicarbonate, higher = longer survival) 102 % of control. Also, the T/C (endpoint: median survival time, dose: 1000.0 mg/kg/injection, schedule: Q01DX001 (ip), vehicle: sodium bicarbonate, higher = longer survival) was 102 % of control.

As to `NC(=O)c1[nH]nc(C2OC(CO)C(O)C2O)c1O` (centres undefined), the T/C runs as follows: (endpoint: median survival time, dose: 0.12 mg/kg/injection, schedule: Q01DX009 (ip), vehicle: saline, higher = longer survival) 108 % of control; (endpoint: median survival time, dose: 0.25 mg/kg/injection, schedule: Q01DX009 (ip), vehicle: saline, higher = longer survival) 109 % of control; (endpoint: median survival time, dose: 0.5 mg/kg/injection, schedule: Q01DX009 (ip), vehicle: saline, higher = longer survival) 106 % of control; (endpoint: median survival time, dose: 0.67 mg/kg/injection, schedule: Q01DX009 (ip), vehicle: saline, higher = longer survival) 102 % of control; (endpoint: median survival time, dose: 1.25 mg/kg/injection, schedule: Q01DX009 (ip), vehicle: saline, higher = longer survival) 87 % of control.

As for `FC(F)(F)c1nc2nc(Cl)c(Cl)nc2[nH]1`, the T/C reads like this: (endpoint: median survival time, dose: 4.0 mg/kg/injection, schedule: Q01DX009 (ip), vehicle: saline, higher = longer survival) 109 % of control; (endpoint: median survival time, dose: 8.0 mg/kg/injection, schedule: Q01DX009 (ip), vehicle: saline, higher = longer survival) 105 % of control; (endpoint: median survival time, dose: 16.0 mg/kg/injection, schedule: Q01DX009 (ip), vehicle: saline, higher = longer survival) 118 % of control.

Regarding `COC(=O)C[C@](O)(CCC(C)(C)O)C(=O)O[C@@H]1C(OC)=C[C@]23CCCN2CCc2cc4c(cc2[C@H]13)OCO4`, the T/C is, setting by setting: (endpoint: median survival time, dose: 0.7 mg/kg/injection, schedule: Q01DX009 (ip), vehicle: saline, higher = longer survival) 101 % of control; (endpoint: median survival time, dose: 1.0 mg/kg/injection, schedule: Q01DX009 (ip), vehicle: saline, higher = longer survival) 87 % of control; (endpoint: median survival time, dose: 1.5 mg/kg/injection, schedule: Q01DX009 (ip), vehicle: saline, higher = longer survival) 91 % of control; (endpoint: median survival time, dose: 2.3 mg/kg/injection, schedule: Q01DX009 (ip), vehicle: saline, higher = longer survival) 105 % of control.

Turning to `CCCCS(=N)(=O)CC[C@H](N)C(=O)O` (some centres undefined), the T/C was 104 % of control (endpoint: median survival time, dose: 444.0 mg/kg/injection, schedule: Q04HX003 (ip), vehicle: saline, higher = longer survival); 100 % of control (endpoint: median survival time, dose: 888.0 mg/kg/injection, schedule: Q04HX003 (ip), vehicle: saline, higher = longer survival); 102 % of control (endpoint: median survival time, dose: 1776.0 mg/kg/injection, schedule: Q04HX003 (ip), vehicle: saline, higher = longer survival).

For `O=C1OC(C(O)CO)C(O)=C1O` (centres undefined), the T/C by setting is: (endpoint: median survival time, dose: 50.0 mg/kg/injection, schedule: Q01DX009 (ip), vehicle: saline, higher = longer survival) 106 % of control; (endpoint: median survival time, dose: 100.0 mg/kg/injection, schedule: Q01DX009 (ip), vehicle: saline, higher = longer survival) 103 % of control; (endpoint: median survival time, dose: 200.0 mg/kg/injection, schedule: Q01DX009 (ip), vehicle: saline, higher = longer survival) 103 % of control; (endpoint: median survival time, dose: 400.0 mg/kg/injection, schedule: Q01DX009 (ip), vehicle: saline, higher = longer survival) 109 % of control; (endpoint: median survival time, dose: 800.0 mg/kg/injection, schedule: Q01DX009 (ip), vehicle: saline, higher = longer survival) 109 % of control.

On to `COC(=O)Nc1nc2ccc(C(=O)c3cccs3)cc2[nH]1`, for which the T/C by setting is: (endpoint: median survival time, dose: 50.0 mg/kg/injection, schedule: Q04DX002 (iv), vehicle: other, higher = longer survival) 110 % of control; (endpoint: median survival time, dose: 50.0 mg/kg/injection, schedule: Q05DX005 (ip), vehicle: other, higher = longer survival) 104 % of control; (endpoint: median survival time, dose: 60.0 mg/kg/injection, schedule: Q05DX005 (ip), vehicle: other, higher = longer survival) 105 % of control; (endpoint: median survival time, dose: 70.0 mg/kg/injection, schedule: Q05DX005 (ip), vehicle: other, higher = longer survival) 103 % of control.

Consider `O=C(O)CCCc1ccc(N(CCCl)CCCl)cc1`, for which the T/C by setting is: (endpoint: median survival time, dose: 1.5 mg/kg/injection, schedule: Q01DX009 (ip), vehicle: Klucel (hydroxypropylcellulose) (HPC), higher = longer survival) 111 % of control; (endpoint: median survival time, dose: 3.0 mg/kg/injection, schedule: Q01DX009 (ip), vehicle: Klucel (hydroxypropylcellulose) (HPC), higher = longer survival) 105 % of control; (endpoint: median survival time, dose: 4.0 mg/kg/injection, schedule: Q01DX009 (ip), vehicle: Klucel (hydroxypropylcellulose) (HPC), higher = longer survival) 121 % of control; (endpoint: median survival time, dose: 6.0 mg/kg/injection, schedule: Q01DX009 (ip), vehicle: Klucel (hydroxypropylcellulose) (HPC), higher = longer survival) 101 % of control; (endpoint: median survival time, dose: 8.0 mg/kg/injection, schedule: Q01DX009 (ip), vehicle: Klucel (hydroxypropylcellulose) (HPC), higher = longer survival) 102 % of control; (endpoint: median survival time, dose: 12.0 mg/kg/injection, schedule: Q01DX009 (ip), vehicle: Klucel (hydroxypropylcellulose) (HPC), higher = longer survival) 97 % of control. The T/C reads like this: (endpoint: median tumor weight (est.), dose: 4.0 mg/kg/injection, schedule: Q01DX009 (ip), vehicle: saline with Tween-80, higher = larger tumour) 61 % of control; (endpoint: median tumor weight (est.), dose: 8.0 mg/kg/injection, schedule: Q01DX009 (ip), vehicle: saline with Tween-80, higher = larger tumour) 25 % of control.

With `CC(=O)NNC(=O)c1ccccn1`, the T/C runs as follows: (endpoint: median survival time, dose: 6.25 mg/kg/injection, schedule: Q01DX009 (ip), vehicle: Klucel (hydroxypropylcellulose) (HPC), higher = longer survival) 102 % of control; (endpoint: median survival time, dose: 12.5 mg/kg/injection, schedule: Q01DX009 (ip), vehicle: Klucel (hydroxypropylcellulose) (HPC), higher = longer survival) 92 % of control; (endpoint: median survival time, dose: 25.0 mg/kg/injection, schedule: Q01DX009 (ip), vehicle: Klucel (hydroxypropylcellulose) (HPC), higher = longer survival) 86 % of control; (endpoint: median survival time, dose: 50.0 mg/kg/injection, schedule: Q01DX009 (ip), vehicle: Klucel (hydroxypropylcellulose) (HPC), higher = longer survival) 88 % of control and 98 % of control; (endpoint: median survival time, dose: 100.0 mg/kg/injection, schedule: Q01DX009 (ip), vehicle: Klucel (hydroxypropylcellulose) (HPC), higher = longer survival) 88 % of control.
